In publication PMC5704913 (Toxicology and applied pharmacology, 2017):
Entries after “also recorded” stand apart in the source; their conditions may differ. Values belong to the compound of their own block, whether it stands above or below them.

Legend:
SOD activity assay = format: biochemical; details: unit = amount that inhibits one-half the formation of adrenochrome at pH 10.2
H2O2 scavenging assay = format: biochemical; details: read-out: H2O2 IC50; concentration that scavenged 50% of H2O2; 50 µM H2O2, 1 minute
[1] = system: respiring brain mitochondria; details: ref Castello et al., 2008; cited from earlier work
MPTP-treated mice = details: oral administration; ref Liang et al., 2007; cited from earlier work
[2] = Brain manganese levels by ICPMS after 7 days daily dosing; format: in vivo, C57BL/6 mice; details: 15 mg/kg i.p. daily for 7 days
C57BL/6 mice = assay: Open field test and accelerated rotarod test; format: in vivo; details: 15 mg/kg i.p. daily for 7 days

- IC50 (H2O2 scavenging assay): 104 nM
SMILES: COC(=O)c1c2nc(c(C(F)(F)F)c3ccc([n-]3)c(C(=O)OC)c3nc(c(C(F)(F)F)c4ccc1[n-]4)C=C3)C=C2.[Cl-].[Mn+3] [AEOL 11207]
- SOD Activity (SOD activity assay): 124 U/mg
- H2O2 scavenging in respiring brain mitochondria (in words) [1]: potent H2O2 scavengers
- effect on MPTP-induced neurotoxicity (in words) (MPTP-treated mice): inhibited MPTP-induced neurotoxicity

SMILES: [Cl][Mn][Cl] [MnCl2]
- brain manganese levels vs vehicle (in words) [2]: increased brain manganese levels significantly
- increase of brain manganese levels [2]: ~ 10 fold
- neurobehavioral changes (open field, rotarod) vs vehicle (C57BL/6 mice): significant deficit in movement; also recorded: significant rotarod deficit
